Results reported in patent EP0431323A1, “Antitumor antibiotic BU-3983T” (priority 1989, dated 1991).
Numbered stars: 1 amine (or outer) side, 2 acyl side, 3 side chain; on linkers, the order of the positions; unused ones are H or OH. Bridge positions count the residues as written; N and C are the ends. Square brackets hold non-standard residues; d marks the D form. Peptide text beside a SMILES is read from it. I, II: the chains in the order shown. * marks the point of attachment. Actinocin(9to1) = Cc1c2oc3c(C)ccc(C(=O)[*:1])c3nc-2c(C(=O)[*:2])c(N)c1=O; Leu(3R-OH,Nα-propionyl) = CCC(=O)N[C@H](C(=O)*)[C@H](O)C(C)C; X1 = CC(C)[C@@H](O[*:3])[C@H](N[*:1])C(=O)[*:2]; NMeT = CN[C@H](C(=O)O)[C@@H](C)O; dPhLac = O=C(O)[C@H](O)Cc1ccccc1; NMeV = CN[C@H](C(=O)O)C(C)C; NMeA = CN[C@@H](C)C(=O)O; NMeDha = C=C(NC)C(=O)O; Sar = CNCC(=O)O

What was measured:
[1] = system: B16 melanoma; experiment: In vivo antitumor activity in tumor-bearing mice, B16 melanoma (ip); details: B16 melanoma ip, BDF₁ mice, Q4D x 3; for T/C: significant if T/C ≧ 125%
Method: (§1) In vivo antitumor activity of BU-3983T was examined using tumor-bearing mice. Male BDF₁ mice were intraperitoneally inoculated with 0.5 ml of 10% melanotic melanoma B16 brei, and female CDF₁ mice were intraperitoneally inoculated with 0.4 ml of diluted ascitic fluid containing 10⁶ lymphocytic leukemia P388 cells or 10⁵ lymphoid leukemia L1210 cells. Mitomycin C was used as a reference compound. Test compounds were intraperitoneally administered to the mice by the following treatment schedules: once a day on day 1 only (Q1D x 1), on days 1, 5 and 9 (Q4D x 3) or on days 1 to 9 (Q1D x 9). […]

[2] = system: P388 leukemia; experiment: In vivo antitumor activity in tumor-bearing mice, P388 leukemia (ip); details: P388 leukemia ip, CDF₁ mice, Q1D x 1; for T/C: significant if T/C ≧ 125%
Method: as §1

[3] = system: L1210 leukemia; experiment: In vivo antitumor activity in tumor-bearing mice, L1210 leukemia (ip); details: L1210 leukemia ip, CDF₁ mice, Q1D x 1; for T/C: significant if T/C ≧ 125%
Method: as §1

[4] = system: DNA synthesis in B16-F10 melanoma cells; experiment: Inhibition of macromolecule synthesis: DNA (3H-thymidine incorporation); assay type: cell-based, murine; details: Mus musculus, 4.5 hours + 30 minutes label, read-out: IC₅₀ DNA
Method: (§2) B16-F10 cells (10⁵ cells/ml) were incubated with test materials at 37°C for 4.5 hours (for DNA synthesis) or 4 hours (for RNA and protein syntheses). Labelled precursor, ³H-thymidine, ¹⁴C-uridine or ³H-leucine was added to the culture and further incubated for 30 minutes (for DNA) or 60 minutes (for RNA and protein). After washing with chilled 5% trichloroacetic acid solution, the radioactivity incorporated into the acid-insoluble fraction of the tumor cells was determined by a liquid scintillation counter. Actinomycin D was used as a reference compound.

[5] = system: RNA synthesis in B16-F10 melanoma cells; experiment: Inhibition of macromolecule synthesis: RNA (14C-uridine incorporation); assay type: cell-based, murine; details: Mus musculus, 4 hours + 60 minutes label, read-out: IC₅₀ RNA
Method: as §2

[6] = system: Protein synthesis in B16-F10 melanoma cells; experiment: Inhibition of macromolecule synthesis: protein (3H-leucine incorporation); assay type: cell-based, murine; details: Mus musculus, 4 hours + 60 minutes label, read-out: IC₅₀ Protein
Method: as §2

[7] = system: Gram-positive organism; details: Sheehan et al, J. Am. Chem. Soc., 90, 462 (1968); cited from earlier work
[8] = system: Gram-negative bacteria; details: Sheehan et al, J. Am. Chem. Soc., 90, 462 (1968); cited from earlier work
[9] = system: Gram-positive microorganisms; details: Maehr, et al, J. Antibiotics, 39, 17 (1986); cited from earlier work
[10] = system: platelet aggregation; details: Fujioka, et al, J. Org. Chem. 53, 2820 (1988); cited from earlier work
[11] = Fujioka, et al, J. Org. Chem. 53, 2820 (1988); cited from earlier work

CO[C@@]12[C@H](COC(N)=O)C3=C(C(=O)C(C)=C(N)C3=O)N1C[C@@H]1N[C@@H]12 [Mitomycin C, reference compound]
Body weight change on day 5 ([1]; 0.25 mg/kg/day ip): +0.8 g
MST (Median survival time) ([1]; 0.25 mg/kg/day ip): 15.5 days
T/C ([1]; 0.25 mg/kg/day ip): 119%
Body weight change on day 5 ([1]; 0.5 mg/kg/day ip): +0.6 g
MST (Median survival time) ([1]; 0.5 mg/kg/day ip): 18.0 days
T/C ([1]; 0.5 mg/kg/day ip): 138*² %
Body weight change on day 5 ([1]; 1 mg/kg/day ip): +0.8 g
MST (Median survival time) ([1]; 1 mg/kg/day ip): 22.0 days
T/C ([1]; 1 mg/kg/day ip): 169*² %
Body weight change on day 5 ([1]; 2 mg/kg/day ip): +0.5 g
MST (Median survival time) ([1]; 2 mg/kg/day ip): 27.5 days
T/C ([1]; 2 mg/kg/day ip): 212*² %
Body weight change on day 4 ([2]; 0.25 mg/kg/day ip): +1.0 g
MST (Median survival time) ([2]; 0.25 mg/kg/day ip): 11.5 days
T/C ([2]; 0.25 mg/kg/day ip): 115%
Body weight change on day 4 ([2]; 0.5 mg/kg/day ip): +1.5 g
MST (Median survival time) ([2]; 0.5 mg/kg/day ip): 13.0 days
T/C ([2]; 0.5 mg/kg/day ip): 130*² %
Body weight change on day 4 ([2]; 1 mg/kg/day ip): +2.0 g
MST (Median survival time) ([2]; 1 mg/kg/day ip): 14.0 days
T/C ([2]; 1 mg/kg/day ip): 140*² %
Body weight change on day 4 ([2]; 2 mg/kg/day ip): +0.5 g
MST (Median survival time) ([2]; 2 mg/kg/day ip): 15.5 days
T/C ([2]; 2 mg/kg/day ip): 155*² %
Body weight change on day 4 ([2]; 4 mg/kg/day ip): -0.8 g
MST (Median survival time) ([2]; 4 mg/kg/day ip): 16.5 days
T/C ([2]; 4 mg/kg/day ip): 165*² %
Body weight change on day 4 ([3]; 0.5 mg/kg/day ip): +1.5 g
MST (Median survival time) ([3]; 0.5 mg/kg/day ip): 10.0 days
T/C ([3]; 0.5 mg/kg/day ip): 125*² %
Body weight change on day 4 ([3]; 1 mg/kg/day ip): +1.5 g
MST (Median survival time) ([3]; 1 mg/kg/day ip): 10.0 days
T/C ([3]; 1 mg/kg/day ip): 125*² %
Body weight change on day 4 ([3]; 2 mg/kg/day ip): +1.0 g
MST (Median survival time) ([3]; 2 mg/kg/day ip): 10.5 days
T/C ([3]; 2 mg/kg/day ip): 131*² %
Body weight change on day 4 ([3]; 4 mg/kg/day ip): +0.5 g
MST (Median survival time) ([3]; 4 mg/kg/day ip): 11.0 days
T/C ([3]; 4 mg/kg/day ip): 138*² %
Body weight change on day 4 ([3]; 8 mg/kg/day ip): -0.3 g
MST (Median survival time) ([3]; 8 mg/kg/day ip): 12.5 days
T/C ([3]; 8 mg/kg/day ip): 156*² %

Cc1c2oc3c(C)ccc(C(=O)N[C@@H]4C(=O)N[C@H](C(C)C)C(=O)N5CCC[C@H]5C(=O)N(C)CC(=O)N(C)[C@@H](C(C)C)C(=O)O[C@@H]4C)c3nc-2c(C(=O)N[C@@H]2C(=O)N[C@H](C(C)C)C(=O)N3CCC[C@H]3C(=O)N(C)CC(=O)N(C)[C@@H](C(C)C)C(=O)O[C@@H]2C)c(N)c1=O [Actinomycin D, reference compound] (I: T[dV]P[Sar][NMeV] / II: T[dV]P[Sar][NMeV]; ester I:1-I:C, II:1-II:C; linker I:N-II:N via Actinocin(9to1))
IC50 [4]: 1.3 µg/mL
IC50 [5]: 0.07 µg/mL
IC50 [6]: > 30 µg/mL

Telomycin
activity against Gram-positive organism [7]: active
effect against most Gram-negative bacteria [8]: little or no effect

C/C=C(\C)C(=O)[C@@H](/C=C(\C)[C@@H]1O[C@@](O)([C@](O)(CC)C(=O)N[C@@H]2C(=O)N3NCCC[C@H]3C(=O)N(O)[C@H](COC)C(=O)N(C)[C@H](C)C(=O)N3NCCC[C@@H]3C(=O)N[C@@H]([C@H](C)O)C(=O)O[C@@H]2C(C)C)CC[C@H]1C)CC [azinothricin]
activity against Gram-positive microorganisms [9]: primarily active

C=C1C(=O)N[C@@H](C)C(=O)N(C)[C@@H](C)C(=O)N[C@@H]([C@H](OC(=O)[C@@H](NC(=O)CC)[C@H](O)C(C)C)C(C)C)C(=O)N(C)[C@@H]([C@@H](C)OC)C(=O)O[C@H](C(C)C)[C@H](NC(C)=O)C(=O)O[C@H](Cc2ccccc2)C(=O)N1C [FR900359] (Ac-[X1][dPhLac][NMeDha]A[NMeA][X1](Leu(3R-OH,Nα-propionyl))[NMeT](Me); ester 1-C)
inhibition of platelet aggregation [10]: inhibition of platelet aggregation
decrease of blood pressure [11]: decrease of blood pressure
